28 molecules from publication PMC7587356, “High-Throughput Screening for Inhibitors of the SARS-CoV-2 Protease Using a FRET-Biosensor” (Molecules, 2020) can be followed below.

The experiment concerns the target SARS-CoV-2 3CLpro (Severe acute respiratory syndrome coronavirus 2, UniProt P0DTD1). The experiment can be described thus: biochemical. The settings on record: for inhibition at 5 µM: 4 h. Type of experiment: biochemical. More on the design: Replicate_1 / Replicate_2 / mean / mean (LOPAC_screen_w_protease): unit not given here.
Where [1] appears, read: LOPAC1280 primary screen with protease, 5 µM compound, replicate 1.
The mark [2] stands for this setting: LOPAC1280 primary screen with protease, 5 µM compound, replicate 2.
Setting [3] is: sheet LOPAC_screen_w_protease, LOPAC1280 primary screen with protease, 5 µM compound, mean of the two replicates, read-out: mean.
Where [4] appears, read: sheet LOPAC_screen_w_protease, LOPAC1280 primary screen with protease, 5 µM compound, replicate 1, read-out: Replicate_1.
Setting [5] is: sheet LOPAC_screen_w_protease, LOPAC1280 primary screen with protease, 5 µM compound, replicate 2, read-out: Replicate_2.
Where [6] appears, read: sheet LOPAC_screen_w_protease, LOPAC1280 primary screen with protease, 5 µM compound, mean of the two replicates.
[7] abbreviates: sheet LOPAC_screen_w_protease, LOPAC1280 primary screen with protease, 5 µM compound, replicate 1.
[8] abbreviates: sheet LOPAC_screen_w_protease, LOPAC1280 primary screen with protease, 5 µM compound, replicate 2.
The mark [9] stands for this setting: sheet LOPAC_screen_w_protease, primary screen with protease, 5 µM, mean of two replicates.
Where [10] appears, read: sheet LOPAC_screen_w_protease, primary screen with protease, 5 µM, replicate 1.
Setting [11] is: sheet LOPAC_screen_w_protease, primary screen with protease, 5 µM, replicate 2.
Setting [12] is: sheet LOPAC_screen_w_protease, LOPAC1280 primary screen at 5 µM, with protease, mean of the two replicates, read-out: mean.
Setting [13] is: sheet LOPAC_screen_w_protease, LOPAC1280 primary screen at 5 µM, with protease, replicate 1, read-out: Replicate_1.
Where [14] appears, read: sheet LOPAC_screen_w_protease, LOPAC1280 primary screen at 5 µM, with protease, replicate 2, read-out: Replicate_2.
Setting [15] is: sheet LOPAC_screen_w_protease, primary screen with protease, compound at 5 µM, mean of two replicates, read-out: mean.
Setting [16] is: sheet LOPAC_screen_w_protease, primary screen with protease, compound at 5 µM, replicate 1, read-out: Replicate_1.
[17] abbreviates: sheet LOPAC_screen_w_protease, primary screen with protease, compound at 5 µM, replicate 2, read-out: Replicate_2.
The mark [18] stands for this setting: sheet LOPAC_screen_w_protease, LOPAC1280 at 5 µM, mean of two replicates.
Where [19] appears, read: sheet LOPAC_screen_w_protease, LOPAC1280 at 5 µM, replicate 1.
[20] abbreviates: sheet LOPAC_screen_w_protease, LOPAC1280 at 5 µM, replicate 2.

Counter-ions that a name gives are not always drawn. Like-named read-outs stand apart in the source and are kept apart here.

With `Cc1ccc(C(=O)Nc2ccc(S(=O)(=O)O)c3cc(S(=O)(=O)O)cc(S(=O)(=O)O)c23)cc1NC(=O)c1cccc(NC(=O)Nc2cccc(C(=O)Nc3cc(C(=O)Nc4ccc(S(=O)(=O)O)c5cc(S(=O)(=O)O)cc(S(=O)(=O)O)c45)ccc3C)c2)c1` [Suramin hexasodium], the inhibition at 5 µM is, setting by setting: (sheet LOPAC_screen_w_protease, LOPAC1280 at 5 µM, mean of two replicates, read-out: mean) 1.22%; (sheet LOPAC_screen_w_protease, LOPAC1280 at 5 µM, replicate 1, read-out: Replicate_1) 2.66%; (sheet LOPAC_screen_w_protease, LOPAC1280 at 5 µM, replicate 2, read-out: Replicate_2) -0.222%.
Consider `CC(=O)NCCc1c[nH]c2ccc(O)cc12` [N-Acetyl-5-hydroxytryptamine], for which, where the note is “LOPAC1280 primary screen with protease, 5 µM compound, mean of two replicates”, the “mean (LOPAC_screen_w_protease)” value is given as 1.513. Moreover, under setting [1], the “Replicate_1 (LOPAC_screen_w_protease)” value worked out at 1.947. For the same molecule, the “Replicate_2 (LOPAC_screen_w_protease)” value under setting [2] is listed as 1.078.
For the molecule `N=C(N)c1ccc(N)cc1` [4-Aminobenzamidine dihydrochloride], the inhibition at 5 µM was -0.229% (sheet LOPAC_screen_w_protease, primary screen with protease, 5 µM, mean of two replicates, read-out: mean); 1.52% (sheet LOPAC_screen_w_protease, primary screen with protease, 5 µM, replicate 1, read-out: Replicate_1); -1.98% (sheet LOPAC_screen_w_protease, primary screen with protease, 5 µM, replicate 2, read-out: Replicate_2).
`C[C@H]1c2cccc(O)c2C(=O)C2=C(O)[C@]3(O)C(=O)C(C(N)=O)=C(O)[C@@H](N(C)C)[C@@H]3[C@@H](O)[C@@H]21` [Doxycycline hydrochloride]: the inhibition at 5 µM runs as follows: under setting [3], 4.21%; under setting [4], 5.78%; under setting [5], 2.65%.
`COc1ccc2c(c1O)-c1cccc3c1[C@@H](C2)N(C)CC3.Cl` [R(-)-Apocodeine hydrochloride]: the mean under setting [6] came out at 6.058. The Replicate_1 under setting [7] was found to be 6.597. Under setting [8], the Replicate_2 amounted to 5.52.
In turn, `CCCCC/C=C\C/C=C\C/C=C\C/C=C\CCCC(=O)NCC(=O)O` [N-arachidonylglycine] returned a mean under setting [9] of 0.3785. Under setting [10], this molecule came in with a Replicate_1 of 1.728. This molecule also gave a Replicate_2 under setting [11] of -0.9708.
Regarding `CN/C(=N/CCSCc1nc[nH]c1C)NC#N` [Cimetidine], the inhibition at 5 µM runs as follows: (read-out: Replicate_1) 1.76%; (read-out: Replicate_2) 2.91%; (read-out: mean) 2.34%.
Take `CNCCC(Oc1ccccc1OC)c1ccccc1` (centres unmarked) [Nisoxetine hydrochloride]: the inhibition at 5 µM came out at 4.4% under setting [3], 3.53% under setting [4] and 5.27% under setting [5].
For `O=C(NCCNCC(O)COc1ccc(O)cc1)N1CCOCC1` (centres unmarked) [Xamoterol hemifumarate], the inhibition at 5 µM was 0.551% under setting [12], 1.09% under setting [13] and 0.0143% under setting [14].
In the same order, the values of `CN1C(=O)CCS(=O)(=O)C1c1ccc(Cl)cc1` (centres unmarked) [Chlormezanone] are 0.463%, 2.15% and -1.22%.
On to `Cl.NCCc1ccc(S(=O)(=O)F)cc1`, for which the mean (sheet LOPAC_screen_w_protease, LOPAC1280 primary screen at 5 µM, with protease, mean of the two replicates) is listed as 0.6027. Further, under “sheet LOPAC_screen_w_protease, LOPAC1280 primary screen at 5 µM, with protease, replicate 1”, the Replicate_1 is 1.03. The molecule also displayed a Replicate_2 (sheet LOPAC_screen_w_protease, LOPAC1280 primary screen at 5 µM, with protease, replicate 2) of 0.1751.
For the molecule `Nc1cc(N2CCCCC2)nc(N)[n+]1[O-]` [Minoxidil], the inhibition at 5 µM stood at 2.95% under setting [15], 3.92% under setting [16] and 1.98% under setting [17].
In turn, `O=C(Nc1cccc(C(=O)Nc2ccc(S(=O)(=O)O)c3cc(S(=O)(=O)O)cc(S(=O)(=O)O)c23)c1)Nc1cccc(C(=O)Nc2ccc(S(=O)(=O)O)c3cc(S(=O)(=O)O)cc(S(=O)(=O)O)c23)c1` [NF 023, reference compound] came in with a mean under setting [6] of 6.11. Under setting [7], the Replicate_1 came out at 5.845. The same molecule showed a Replicate_2 under setting [8] of 6.375.
In turn, Oligomycin A displayed a mean under setting [6] of 6.143. Further, the Replicate_1 under setting [7] came out at 3.7549. This molecule also registered a Replicate_2 under setting [8] of 8.531.
As for `NCCc1ccc(O)c(O)c1` [Dopamine hydrochloride], the inhibition at 5 µM is 16.2% (read-out: Replicate_1 (LOPAC screen with protease)), 14.6% (read-out: Replicate_2 (LOPAC screen with protease)) and 15.4% (read-out: mean (LOPAC screen with protease)).
`CN[C@H](CC(=O)O)C(=O)O` [N-Methyl-D-aspartic acid]: the inhibition at 5 µM by setting is: (sheet LOPAC_screen_w_protease, primary screen of LOPAC1280 at 5 µM with protease, mean of the two replicates, read-out: mean) 3.42%; (sheet LOPAC_screen_w_protease, primary screen of LOPAC1280 at 5 µM with protease, replicate 1, read-out: Replicate_1) 4.04%; (sheet LOPAC_screen_w_protease, primary screen of LOPAC1280 at 5 µM with protease, replicate 2, read-out: Replicate_2) 2.81%.
As to `CNC(=C[N+](=O)[O-])NCCSCc1ccc(CN(C)C)o1` [Ranitidine hydrochloride], the inhibition at 5 µM is, setting by setting: (read-out: Replicate_1 (LOPAC_screen_w_protease)) 2.07%; (read-out: Replicate_2 (LOPAC_screen_w_protease)) 1.3%.
For `CC(C)(CO)Cc1cc(C(C)(C)C)c(O)c(C(C)(C)C)c1` [CGP-7930], under setting [18], the mean came out at 1.164. The same molecule came in with a Replicate_1 under setting [19] of 0.8273. Under setting [20], this molecule came in with a Replicate_2 of 1.5.
Turning to `CNCCCC1c2ccccc2C=Cc2ccccc21` [Protriptyline hydrochloride], the inhibition at 5 µM (read-out: Replicate_1) was found to be 1.19%, the inhibition at 5 µM (read-out: Replicate_2) is -0.325% and the inhibition at 5 µM (read-out: mean) was 0.431%.
As for `COC(=O)c1cc2c(cn1)[nH]c1ccccc12` [Methyl beta-carboline-3-carboxylate], the mean (sheet LOPAC_screen_w_protease, primary screen of LOPAC1280 at 5 µM with protease, mean of the two replicates) is 3.265. In addition, the Replicate_1 (sheet LOPAC_screen_w_protease, primary screen of LOPAC1280 at 5 µM with protease, replicate 1) was determined as 4.868. The molecule further returned a Replicate_2 (sheet LOPAC_screen_w_protease, primary screen of LOPAC1280 at 5 µM with protease, replicate 2) of 1.662.
`C[C@]12CCC(=O)C(O)=C1CC[C@@H]1[C@@H]2CC[C@]2(C)C(=O)CC[C@@H]12` [4-Androsten-4-ol-3,17-dione] yielded a mean under setting [9] of 0.2033. The same molecule registered a Replicate_1 under setting [10] of 1.5144. Under setting [11], the Replicate_2 is listed as -1.108.
Under setting [18], `N[C@@H](CCCC(=O)O)C(=O)O` [L-2-aminoadipic acid] displayed a mean of 0.8841. Besides, the Replicate_1 under setting [19] came out at 1.166. The Replicate_2 under setting [20] is given as 0.6027.
Under “sheet LOPAC_screen_w_protease, primary screen with protease, compound at 5 µM, mean of two replicates”, `NCCNC(=O)Cc1ccc(NC(=O)Cc2ccc(Nc3ncnc4c3ncn4[C@@H]3O[C@H](CO)[C@@H](O)[C@H]3O)cc2)cc1` [Adenosine amine congener] registered a mean of 2.686. For the same molecule, the Replicate_1 (sheet LOPAC_screen_w_protease, primary screen with protease, compound at 5 µM, replicate 1) is on record as 3.268. This molecule came in with a Replicate_2 (sheet LOPAC_screen_w_protease, primary screen with protease, compound at 5 µM, replicate 2) of 2.1037.
Turning to `NCCCP(=O)(O)O` [3-Aminopropylphosphonic acid], under “LOPAC1280 primary screen with protease, 5 µM compound, mean of the two replicates”, the “mean (LOPAC_screen_w_protease)” value is recorded as 1.904. Also, under setting [1], the “Replicate_1 (LOPAC_screen_w_protease)” value is 3.261. For the same molecule, the “Replicate_2 (LOPAC_screen_w_protease)” value under setting [2] was 0.5459.
As to `O=C(O)[C@@H]1[C@H](C(=O)O)[C@H]2CC[C@@H]1O2` [Endothall], the inhibition at 5 µM (read-out: Replicate_1) was determined as 3.42%, the inhibition at 5 µM (read-out: Replicate_2) is -0.805% and the inhibition at 5 µM (read-out: mean) came to 1.31%.
For `CCOC(=O)c1ncn2c1CN(C)C(=O)c1cc(F)ccc1-2` [Flumazenil], the inhibition at 5 µM under setting [15] is 3.1%, the inhibition at 5 µM under setting [16] came to 5.09% and the inhibition at 5 µM under setting [17] worked out at 1.11%.
For `C[C@@](Cc1ccc(O)c(O)c1)(NN)C(=O)O` [S-(-)-Carbidopa], the “mean (LOPAC screen with protease)” value (sheet LOPAC_screen_w_protease, primary screen at 5 µM, mean of two replicates) is 17.4897. Under “sheet LOPAC_screen_w_protease, primary screen at 5 µM, replicate 1”, the “Replicate_1 (LOPAC screen with protease)” value amounted to 19.273. In addition, under “sheet LOPAC_screen_w_protease, primary screen at 5 µM, replicate 2”, the “Replicate_2 (LOPAC screen with protease)” value is on record as 15.7065.
As to `O=c1[nH]c2ccccc2n1C1CCN(CCCC(c2ccc(F)cc2)c2ccc(F)cc2)CC1` [Pimozide], the inhibition at 5 µM reads like this: under setting [15], 2.77%; under setting [16], 3.25%; under setting [17], 2.29%.
